We go through one compound from publication PMC3608555, “The HopQ1 Effector’s Nucleoside Hydrolase-Like Domain Is Required for Bacterial Virulence in Arabidopsis and Tomato, but Not Host Recognition in Tobacco” (PLoS ONE, 2013).

SMILES strings stand for the structures.

The target in the test is RihB (MBP:RihB) (Escherichia coli, UniProt P33022). As to conditions: high activity, data not shown.
Chain of RihB (MBP:RihB) (P33022 whole entry): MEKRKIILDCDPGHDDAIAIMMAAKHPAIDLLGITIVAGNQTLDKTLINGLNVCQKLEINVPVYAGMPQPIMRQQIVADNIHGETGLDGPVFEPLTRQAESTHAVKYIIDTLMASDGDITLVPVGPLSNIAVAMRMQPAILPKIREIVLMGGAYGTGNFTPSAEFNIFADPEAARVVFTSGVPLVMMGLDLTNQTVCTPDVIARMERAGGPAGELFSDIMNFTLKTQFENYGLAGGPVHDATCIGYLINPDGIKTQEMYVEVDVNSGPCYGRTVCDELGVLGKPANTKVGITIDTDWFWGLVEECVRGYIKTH

`O=c1ccn([C@@H]2O[C@H](CO)[C@@H](O)[C@H]2O)c(=O)[nH]1` [uridine]: the “nucleoside hydrolase activity assay” value is “MBP:RihB showed high enzymatic activity for cytidine and uridine”.
